Laboratory results as given in patent publication US9139557B2, “Carboxamide compounds and their use as calpain inhibitors” (Abbott GmbH & Co. KG, priority 2006, dated 2015).

Assays:
Type in all cases: biochemical
[1] = molecular target: T1, cathepsin L (Homo sapiens, UniProt P07711); assay: Cathepsin L enzyme inhibition in vitro (kinetic fluorescence assay); conditions: Ki(cathepsin L)/Ki(calpain) ratio
T1 construct: cathepsin L—isolated from human liver; purchased Calbiochem 219402; host or cells: human liver (tissue isolate)
Summary of the method: (§1)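 Kinetic fluorescence (ex 390/em 460 nm), room temperature: calpain-I (human erythrocyte, 20 nM) with 100 µM Suc-Leu-Tyr-AMC, imidazole/CaCl2 pH 7.3; cathepsin B (liver, 0.25 nM), 100 µM Z-Phe-Arg-AMC; L (liver, 1 nM), 2 µM Z-Phe-Arg-AMC; S (recombinant, 0.5 nM), 20 µM Z-Val-Val-Arg-AMC; cathepsins in MES/EDTA/cysteine pH 6.0. Apparent Ki via Cheng-Prusoff, 2–4 curves averaged.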

[2] = molecular target: T2, cathepsin K (Homo sapiens, UniProt P43235); assay: Cathepsin K enzyme inhibition in vitro (kinetic fluorescence assay); conditions: Ki(cathepsin K)/Ki(calpain) ratio
T2 construct: purchased Calbiochem 342001; host or cells: E. coli
T2 sequence (P43235 115-329): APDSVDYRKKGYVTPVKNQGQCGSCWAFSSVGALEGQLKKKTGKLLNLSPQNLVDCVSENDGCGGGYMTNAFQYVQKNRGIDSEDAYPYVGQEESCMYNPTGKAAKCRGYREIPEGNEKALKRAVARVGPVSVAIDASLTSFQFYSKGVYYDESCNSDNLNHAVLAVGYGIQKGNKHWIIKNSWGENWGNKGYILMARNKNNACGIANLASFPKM

[3] = molecular target: T3, cathepsin S (Homo sapiens, UniProt P25774); assay: Cathepsin S enzyme inhibition in vitro (kinetic fluorescence assay); conditions: Ki(cathepsin S)/Ki(calpain) ratio
T3 construct: purchased Calbiochem 219343; host or cells: E. coli
Summary of the method: as §1

[4] = molecular target: T4, cathepsin B (Homo sapiens, UniProt P07858); assay: Cathepsin B enzyme inhibition in vitro (kinetic fluorescence assay); conditions: Ki(cathepsin B)/Ki(calpain) ratio
T4 construct: cathepsin B—isolated from human liver; purchased Calbiochem 219362; host or cells: human liver (tissue isolate)
Summary of the method: as §1

T1 sequence (P07711 114-333): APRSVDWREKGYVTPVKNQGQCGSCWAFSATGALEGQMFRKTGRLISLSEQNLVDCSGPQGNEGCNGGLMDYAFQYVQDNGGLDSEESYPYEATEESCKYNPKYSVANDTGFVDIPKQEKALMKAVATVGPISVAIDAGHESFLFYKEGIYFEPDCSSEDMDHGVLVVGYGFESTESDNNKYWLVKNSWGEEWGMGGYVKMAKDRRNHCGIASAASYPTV
T3 sequence (P25774 115-331): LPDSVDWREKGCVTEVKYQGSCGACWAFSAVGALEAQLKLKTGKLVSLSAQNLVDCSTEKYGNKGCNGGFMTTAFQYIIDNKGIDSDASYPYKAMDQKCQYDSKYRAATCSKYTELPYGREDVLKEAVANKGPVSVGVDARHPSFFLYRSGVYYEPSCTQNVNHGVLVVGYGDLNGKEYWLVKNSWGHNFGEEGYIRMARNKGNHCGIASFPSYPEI

Row | SMILES | Sel cat. L [1] | Sel cat. K [2] | Sel cat. S [3] | Sel cat. B [4]
1 | NC(=O)C(=O)C(Cc1ccccc1)NC(=O)c1cccnc1-n1ccc(-c2ccc(Cl)cc2Cl)n1 (stereo not shown) [Example 79, N-(3-Amino-1-benzyl-2,3-dioxopropyl)-2-[3-(2,4-dichlorophenyl)-1H-pyrazol-1-yl]nicotinamide] | ++ (++ means a Ki(cathepsin L)/Ki(calpain) ratio of ≧50) | ++ (++ means a Ki(cathepsin K)/Ki(calpain) ratio of ≧30) | ++ (++ means a Ki(cathepsin S)/Ki(calpain) ratio of ≧100) | ++ (++ means a Ki(cathepsin B)/Ki(calpain) ratio of ≧30)
2 | NC(=O)C(=O)C(Cc1ccccc1)NC(=O)c1cccnc1-n1ccc(-c2ccccc2)n1 (stereo not shown) [Example 5, N-(3-Amino-1-benzyl-2,3-dioxopropyl)-2-(3-phenyl-1H-pyrazol-1-yl)nicotinamide] | ++ (++ means a Ki(cathepsin L)/Ki(calpain) ratio of ≧50) | + (+ means 10≦Ki(cathepsin K)/Ki(calpain)<30) | ++ (++ means a Ki(cathepsin S)/Ki(calpain) ratio of ≧100) | + (+ means 10≦Ki(cathepsin B)/Ki(calpain)<30)
3 | NC(=O)C(=O)C(Cc1ccccc1)NC(=O)c1cccnc1-n1ccc(-c2cccc(Cl)c2)n1 (stereo not shown) [Example 70, N-(3-Amino-1-benzyl-2,3-dioxopropyl)-2-[3-(3-chlorophenyl)-1H-pyrazol-1-yl]nicotinamide] | ++ (++ means a Ki(cathepsin L)/Ki(calpain) ratio of ≧50) | + (+ means 10≦Ki(cathepsin K)/Ki(calpain)<30) | ++ (++ means a Ki(cathepsin S)/Ki(calpain) ratio of ≧100) | + (+ means 10≦Ki(cathepsin B)/Ki(calpain)<30)
4 | NC(=O)C(=O)C(Cc1ccccc1)NC(=O)c1cccnc1-n1ccc(-c2sccc2Cl)n1 (stereo not shown) [Example 109, N-[3-Amino-2,3-dioxo-1-(phenylmethyl)propyl]-2-[3-(3-chloro-2-thienyl)-1H-pyrazol-1-yl]pyridine-3-carboxamide] | ++ (++ means a Ki(cathepsin L)/Ki(calpain) ratio of ≧50) | ++ (++ means a Ki(cathepsin K)/Ki(calpain) ratio of ≧30) | ++ (++ means a Ki(cathepsin S)/Ki(calpain) ratio of ≧100) | ++ (++ means a Ki(cathepsin B)/Ki(calpain) ratio of ≧30)
5 | NC(=O)C(=O)C(Cc1ccccc1)NC(=O)c1cccnc1-n1ccc(-c2ccc(F)cc2Cl)n1 (stereo not shown) [Example 71, N-(3-Amino-1-benzyl-2,3-dioxopropyl)-2-[3-(2-chloro-4-fluorophenyl)-1H-pyrazol-1-yl]nicotinamide] | ++ (++ means a Ki(cathepsin L)/Ki(calpain) ratio of ≧50) | ++ (++ means a Ki(cathepsin K)/Ki(calpain) ratio of ≧30) | ++ (++ means a Ki(cathepsin S)/Ki(calpain) ratio of ≧100) | ++ (++ means a Ki(cathepsin B)/Ki(calpain) ratio of ≧30)
6 | COc1ccc(CC(NC(=O)c2cccnc2-n2ccc(-c3ccc4c(c3)OC(F)(F)O4)n2)C(=O)C(N)=O)cc1 (stereo not shown) [Example 137, N-(3-Amino-1-{[4-(methyloxy)phenyl]methyl}-2,3-dioxopropyl)-2-[3-(2,2-difluoro-1,3-benzodioxol-5-yl)-1H-pyrazol-1-yl]pyridine-3-carboxamide] | ++ (++ means a Ki(cathepsin L)/Ki(calpain) ratio of ≧50) | + (+ means 10≦Ki(cathepsin K)/Ki(calpain)<30) | ++ (++ means a Ki(cathepsin S)/Ki(calpain) ratio of ≧100) | + (+ means 10≦Ki(cathepsin B)/Ki(calpain)<30)
7 | NC(=O)C(=O)C(Cc1ccccc1)NC(=O)c1cccnc1-n1ccc(-c2cccc3c2OCC3)n1 (stereo not shown) [Example 164, N-[3-Amino-2,3-dioxo-1-(phenylmethyl)propyl]-2-[3-(2,3-dihydro-1-benzofuran-7-yl)-1H-pyrazol-1-yl]pyridine-3-carboxamide] | ++ (++ means a Ki(cathepsin L)/Ki(calpain) ratio of ≧50) | ++ (++ means a Ki(cathepsin K)/Ki(calpain) ratio of ≧30) | ++ (++ means a Ki(cathepsin S)/Ki(calpain) ratio of ≧100) | + (+ means 10≦Ki(cathepsin B)/Ki(calpain)<30)
8 | COc1ccc2c(c1)-c1nn(-c3ncccc3C(=O)NC(Cc3ccccc3)C(=O)C(N)=O)cc1CO2 (stereo not shown) [Example 183, N-[3-Amino-2,3-dioxo-1-(phenylmethyl)propyl]-2-[8-(methyloxy)chromeno[4,3-c]pyrazol-2(4H)-yl]pyridine-3-carboxamide] | ++ (++ means a Ki(cathepsin L)/Ki(calpain) ratio of ≧50) | + (+ means 10≦Ki(cathepsin K)/Ki(calpain)<30) | ++ (++ means a Ki(cathepsin S)/Ki(calpain) ratio of ≧100) | + (+ means 10≦Ki(cathepsin B)/Ki(calpain)<30)
9 | COc1ccc(F)cc1-c1ccn(-c2ncccc2C(=O)NC(Cc2ccccc2)C(=O)C(N)=O)n1 (stereo not shown) [Example 130, N-[3-Amino-2,3-dioxo-1-(phenylmethyl)propyl]-2-{3-[5-fluoro-2-(methyloxy)phenyl]-1H-pyrazol-1-yl}pyridine-3-carboxamide] | ++ (++ means a Ki(cathepsin L)/Ki(calpain) ratio of ≧50) | ++ (++ means a Ki(cathepsin K)/Ki(calpain) ratio of ≧30) | ++ (++ means a Ki(cathepsin S)/Ki(calpain) ratio of ≧100) | ++ (++ means a Ki(cathepsin B)/Ki(calpain) ratio of ≧30)
10 | NC(=O)C(=O)C(Cc1ccc(Cl)cc1)NC(=O)c1cccnc1-n1ccc(-c2ccccc2)n1 (stereo not shown) [Example 50, N-[3-Amino-1-(4-chlorobenzyl)-2,3-dioxopropyl]-2-(3-phenyl-1H-pyrazol-1-yl)nicotinamide] | + (+ means 30≦Ki(cathepsin L)/Ki(calpain)<50) | + (+ means 10≦Ki(cathepsin K)/Ki(calpain)<30) | + (+ means 50≦Ki(cathepsin S)/Ki(calpain)<100) | + (+ means 10≦Ki(cathepsin B)/Ki(calpain)<30)
11 | NC(=O)C(=O)C(Cc1ccccc1)NC(=O)c1cccnc1-n1ccc(-c2c(F)ccc(Cl)c2Cl)n1 (stereo not shown) [Example 120, N-[3-Amino-2,3-dioxo-1-(phenylmethyl)propyl]-2-[3-(2,3-dichloro-6-fluorophenyl)-1H-pyrazol-1-yl]pyridine-3-carboxamide] | + (+ means 30≦Ki(cathepsin L)/Ki(calpain)<50) | ++ (++ means a Ki(cathepsin K)/Ki(calpain) ratio of ≧30) | ++ (++ means a Ki(cathepsin S)/Ki(calpain) ratio of ≧100) | ++ (++ means a Ki(cathepsin B)/Ki(calpain) ratio of ≧30)
12 | Cc1ccccc1-c1ccn(-c2ncccc2C(=O)NC(Cc2ccccc2)C(=O)C(N)=O)n1 (stereo not shown) [Example 93, N-[3-Amino-2,3-dioxo-1-(phenylmethyl)propyl]-2-[3-(2-methylphenyl)-1H-pyrazol-1-yl]pyridine-3-carboxamide] | ++ (++ means a Ki(cathepsin L)/Ki(calpain) ratio of ≧50) | + (+ means 10≦Ki(cathepsin K)/Ki(calpain)<30) | ++ (++ means a Ki(cathepsin S)/Ki(calpain) ratio of ≧100) | ++ (++ means a Ki(cathepsin B)/Ki(calpain) ratio of ≧30)
13 | NC(=O)C(=O)C(Cc1ccccc1)NC(=O)c1cccnc1-n1ccc(-c2cc(C(F)(F)F)ccc2CN2CCOCC2)n1 (stereo not shown) [Example 163, N-[3-Amino-2,3-dioxo-1-(phenylmethyl)propyl]-2-{3-[2-(morpholin-4-ylmethyl)-5-(trifluoromethyl)phenyl]-1H-pyrazol-1-yl}pyridine-3-carboxamide] | + (+ means 30≦Ki(cathepsin L)/Ki(calpain)<50) | + (+ means 10≦Ki(cathepsin K)/Ki(calpain)<30) | ++ (++ means a Ki(cathepsin S)/Ki(calpain) ratio of ≧100) | + (+ means 10≦Ki(cathepsin B)/Ki(calpain)<30)
14 | NC(=O)C(=O)C(Cc1ccccc1)NC(=O)c1cccnc1-n1ccc(-c2ccc(N3CCOCC3)cc2F)n1 (stereo not shown) [Example 102, N-[3-Amino-2,3-dioxo-1-(phenylmethyl)propyl]-2-[3-(2-fluoro-4-morpholin-4-ylphenyl)-1H-pyrazol-1-yl]pyridine-3-carboxamide] | ++ (++ means a Ki(cathepsin L)/Ki(calpain) ratio of ≧50) | ++ (++ means a Ki(cathepsin K)/Ki(calpain) ratio of ≧30) | ++ (++ means a Ki(cathepsin S)/Ki(calpain) ratio of ≧100) | + (+ means 10≦Ki(cathepsin B)/Ki(calpain)<30)
15 | NC(=O)C(=O)C(Cc1ccccc1)NC(=O)c1cccnc1-n1ccc(-c2cc(F)cc(F)c2)n1 (stereo not shown) [Example 91, N-[3-Amino-2,3-dioxo-1-(phenylmethyl)propyl]-2-[3-(3,5-difluorophenyl)-1H-pyrazol-1-yl]pyridine-3-carboxamide] | ++ (++ means a Ki(cathepsin L)/Ki(calpain) ratio of ≧50) | + (+ means 10≦Ki(cathepsin K)/Ki(calpain)<30) | ++ (++ means a Ki(cathepsin S)/Ki(calpain) ratio of ≧100) | ++ (++ means a Ki(cathepsin B)/Ki(calpain) ratio of ≧30)
16 | NC(=O)C(=O)C(Cc1ccccc1)NC(=O)c1cccnc1-n1ccc(-c2cccc(N3CCOCC3)c2)n1 (stereo not shown) [Example 58, N-(3-Amino-1-benzyl-2,3-dioxopropyl)-2-[3-(3-morpholin-4-ylphenyl)-1H-pyrazol-1-yl]nicotinamide] | ++ (++ means a Ki(cathepsin L)/Ki(calpain) ratio of ≧50) | + (+ means 10≦Ki(cathepsin K)/Ki(calpain)<30) | ++ (++ means a Ki(cathepsin S)/Ki(calpain) ratio of ≧100) | + (+ means 10≦Ki(cathepsin B)/Ki(calpain)<30)
